The values that follow come from patent publication US7422863B2, “Molting hormone receptor and method for screening ligand to the receptor” (Kumiai Chemical Industry Co., Ltd., priority 2003, dated 2008).

The structures appear in SMILES notation. Entries after “also recorded” stand apart in the source; their conditions may differ.

As usually defined, the Kd is the constant that tells how readily two partners part at equilibrium.

Parameters in all cases: species or system Spodoptera litura
The test system of assay [1] is EcR-DF/USP-AE complex. Kind of assay: Screening system: inhibition of [3H]ponasterone A binding to the complex by test compounds. Conditions: for activity of binding to the EcR-DF/USP-AE complex: endocrine disrupters and female hormone, FIG. 25; for inhibition of the binding of [3H]ponasterone A to the complex: concentration of test compound changed, FIG. 24; for activity of binding to the complex: test compound 10,000 times stronger than [3H]ponasterone A. The method, then: In Example 7, a screening system used for screening an insect inhibitor was constructed based on the results of Examples 1 to 6. As described in Examples 1 to 6, when binding analysis was carried out using ponasterone A as an ecdysone agonist, ponasterone A binding to a complex consisting of EcR-DF and USP-AE was observed. In order to confirm whether or not this system functions as a screening system, the binding of the complex to other ecdysone agonists should also be observed. Thus, using 20-hydroxyecdysone that is an ecdysone active in living insect bodies and tebufenozide (RH-5992) that is a synthetic ecdysone agonist, the binding experiment was carried out between the […] and each of the above compounds.
First, EcR-DF and USP-AE were mixed into a binding buffer, and [^3H]ponasterone A was then added thereto in the same manner as in Example 4. Also, the same experiment was carried out with the exception that 20-hydroxyecdysone or tebufenozide that was 10,000 times stronger than [^3H]ponasterone A was added thereto, so as to obtain nonspecific binding. […] Thus, the same experiment was carried out while the concentration of 20-hydroxyecdysone or tebufenozide was changed.
Subsequently, in the present example, using a screening system in which ability to bind to the EcR-DF/USP-AE complex is used as an index, 4 types of compounds were evaluated in terms of such binding ability. As compounds to be evaluated, 4-nonylphenol, stilbestrol, and diethyl phthalate (endocrine disrupters), and estradiol-17β (female hormone) were used.

Assay [2] addresses EcR-DF/USP-AE complex. Kind of assay: Scatchard analysis of binding of complex to [3H]ponasterone A. Conditions: EcR-DF:USP-AE 1:1, FIG. 23, read-out: dissociation constant (Kd). The method, then:
In Example 6, using EcR-DF and USP-AE, the dissociation constant (Kd) of the complex to ponasterone A was obtained as follows. First, EcR-DF was mixed with USP-AE at a molar ratio of 1:1, and [^3H]ponasterone A with various concentrations was then added to the mixture. An activated carbon solution was added to the reaction solution to eliminate free ligands. The amount of the EcR-DF/USP-AE complex binding to [^3H]ponasterone A (total binding amount) was obtained by measuring the radioactivity of a supernatant fraction obtained after centrifugation. Moreover, the same experiment was carried out with the exception that nonradioactive ponasterone A that was 10,000 times stronger than [^3H]ponasterone A was added, so as to obtained non-specific binding. In FIG. 23, the horizontal axis indicates the specific bound amount of [^3H]ponasterone A (nM), the vertical axis indicates specific binding amount (bound)/total binding amount-specific binding amount (free).

For assay [3], the system named is complex consisting of EcR-DF and USP-DE. Nature of the assay: [3H]ponasterone A binding experiment, charcoal dextran method, recombinants expressed in Escherichia coli. The conditions noted are these: E. coli-expressed recombinants; 1.37 nM [3H]ponasterone A, 25° C., 40 minutes; FIG. 16. From the text:
(§1) In Example 4, in order to separate a binding form from a free form, the charcoal dextran method was applied. This is a common method applied when a steroid hormone is used as a ligand. By adding an activated carbon solution coated with dextran to a reaction solution when the reaction is terminated, a ligand that has not bound to a receptor is adsorbed on the activated carbon. Thereafter, the reaction solution is centrifuged, thereby separating an activated carbon fraction (precipitate fraction) from a supernatant fraction in which a receptor/ligand complex exists.
In order to prevent the non-specific binding of ponasterone A to a receptor (a complex consisting of an EcR recombinant and a USP recombinant), 1% BSA was first added to a binding buffer (20 mM HEPES (pH7.4)/5 mM DTT/1 nM PMSF). Thereafter, USP-AE or USP-DE was mixed with the EcR-AF, EcR-DF, EcR-DE, EcR-EF, or EcR-E, purified in Example 2. Thereafter, [^3H]ponasterone A ([24, 25, 26, 27-3H] Ponasterone A (American Radiolabeled Chemicals Inc.)) with a final concentration of 1.37 nM was further added thereto. The obtained mixture was reacted at 25° C. […] A supernatant fraction obtained after centrifugation was mixed with a liquid scintillator, and the radioactivity (DPM) of the obtained mixture was measured using a liquid scintillation counter (ALOKA LSC-5100). […]

Assay [4] deals with complex consisting of EcR-DF and USP-AE. The description is as above.
From the text: as §1
(§2) In order to prevent the non-specific binding of ponasterone A to a receptor (a complex consisting of an EcR recombinant and a USP recombinant), 1% BSA was first added to a binding buffer (20 mM HEPES (pH7.4)/5 mM DTT/1 nM PMSF). Thereafter, USP-AE or USP-DE was mixed with the EcR-AF, EcR-DF, EcR-DE, EcR-EF, or EcR-E, purified in Example 2. Thereafter, [^3H]ponasterone A ([24, 25, 26, 27-3H] Ponasterone A (American Radiolabeled Chemicals Inc.)) with a final concentration of 1.37 nM was further added thereto. The obtained mixture was reacted at 25° C. 40 minutes later, the reaction was terminated by addition of 200 μl of an activated carbon solution (0.5% Charcoal, dextran coated (SIGMA)/20 mm HEPES/50 mM NaCl). A supernatant fraction obtained after centrifugation was mixed with a liquid scintillator, and the radioactivity (DPM) of the obtained mixture was measured using a liquid scintillation counter (ALOKA LSC-5100). The obtained measurement value was defined as the total binding amount. Moreover, the same experiment was carried out with the exception that nonradioactive ponasterone A that was 10,000 times stronger than [^3H]ponasterone A was added. Then, the amount of a ligand non-specifically binding to a receptor was obtained. The amount of a ligand specifically binding to a receptor was defined as a value obtained by subtracting the non-specific binding amount from the total binding amount.
The optimal reaction time for a binding reaction between a complex consisting of EcR-DF and USP-AE and a ligand was analyzed as follows. First, USP-AE with various types of concentrations was added to a certain amount of EcR-DF, and the obtained mixture was then reacted at 25° C. for 40 minutes in a water bath. The concentration of ponasterone A in the reaction solution was set at 1.34 nM. […]
The optimal reaction time for a binding reaction between a complex consisting of EcR-DF and USP-AE and a ligand was analyzed as follows. […]
The optimal reaction temperature for a binding reaction between a complex consisting of EcR-DF and USP-AE and a ligand was analyzed as follows. […]

For the next assay, the system named is EcR-DF and USP-DE. Nature of the assay: [3H]ponasterone A binding experiment using COS-7 cell extracts. The method, then: (§3) Each expression plasmid DNA was independently introduced into COS-7 cells. 48 hours later, each extract was prepared from the cells. In addition, plasmid DNA into which EcR-AF had been inserted and plasmid DNA into which USP-AE had been inserted were co-introduced into COS-7 cells, and an extract was then prepared in the same manner. Moreover, plasmid DNA into which, EcR-DF had been inserted and plasmid DNA into which USP-AE had been inserted were co-introduced into COS-7 cells, and an extract was then prepared in the same manner. Furthermore, plasmid DNA into which EcR-AF had been inserted and plasmid DNA into which USP-DE had been inserted were co-introduced into COS-7 cells, and an extract was then prepared in the same manner. Further, plasmid DNA into which EcR-DF had been inserted and plasmid DNA into which USP-DE had been inserted were co-introduced into COS-7 cells, and an extract was then prepared in the same manner. The expression of a product of interest in the COS-7 cells was confirmed by Western blotting using an anti-FLAG antibody.
(§4) By the aforementioned operations, 4 types of extracts containing each of EcR-AF, EcR-DF, USP-AE, and USP-DE, an extract containing the coexpressed EcR-AF and USP-AE, an extract containing the coexpressed EcR-DF and USP-AE, an extract containing the coexpressed EcR-AF and USP-DE, and an extract containing the coexpressed EcR-DF and USP-DE, were prepared.
as §2, with “The amount of a ligand specifically binding to a receptor was defined as a value obtained by subtracting the non-specific binding amount from the total binding amount.” left out

The test system of another assay is EcR-DF and USP-AE. Described as above. The protocol: as §3, §4
as §2, with “The amount of a ligand specifically binding to a receptor was defined as a value obtained by subtracting the non-specific binding amount from the total binding amount.” left out

For assay [5], the system named is EcR-AF combined with USP-AE or USP-DE. Kind of assay: [3H]ponasterone A binding experiment with full-length EcR recombinant. The protocol: as §3, with “The expression of a product of interest in the COS-7 cells was confirmed by Western blotting using an anti-FLAG antibody.” left out
In order to prevent the non-specific binding of ponasterone A to a receptor (a complex consisting of an EcR recombinant and a USP recombinant), 1% BSA was first added to a binding buffer (20 mM HEPES (pH7.4)/5 mM DTT/1 nM PMSF). […] A supernatant fraction obtained after centrifugation was mixed with a liquid scintillator, and the radioactivity (DPM) of the obtained mixture was measured using a liquid scintillation counter (ALOKA LSC-5100). […]

For a further assay, the system named is EcR or USP (single use). Kind of assay: [3H]ponasterone A binding experiment, charcoal dextran method, single use of EcR or USP recombinant. The conditions noted are these: regardless of length, FIG. 16.
From the text: as §1
In order to prevent the non-specific binding of ponasterone A to a receptor (a complex consisting of an EcR recombinant and a USP recombinant), 1% BSA was first added to a binding buffer (20 mM HEPES (pH7.4)/5 mM DTT/1 nM PMSF). […] Thereafter, [^3H]ponasterone A ([24, 25, 26, 27-3H] Ponasterone A (American Radiolabeled Chemicals Inc.)) with a final concentration of 1.37 nM was further added thereto. The obtained mixture was reacted at 25° C. 40 minutes later, the reaction was terminated by addition of 200 μl of an activated carbon solution (0.5% Charcoal, dextran coated (SIGMA)/20 mm HEPES/50 mM NaCl). A supernatant fraction obtained after centrifugation was mixed with a liquid scintillator, and the radioactivity (DPM) of the obtained mixture was measured using a liquid scintillation counter (ALOKA LSC-5100). […]

Where [6] appears, read: coexpressed in COS-7 cells, FIG. 17 lanes 7 and 8.
Setting [7] is: singly expressed in COS-7 cells, then mixed, FIG. 17 lanes 3 and 4.

Turning to `CCCCCCCCCc1ccc(O)cc1` [4-nonylphenol], the “activity of binding to the EcR-DF/USP-AE complex” value with EcR-DF/USP-AE complex [1] is “exhibited activity of binding; also recorded: exhibited strong binding activity”.

Regarding `CC(C)(O)CC[C@@H](O)[C@](C)(O)[C@H]1CC[C@@]2(O)C3=CC(=O)[C@@H]4C[C@@H](O)[C@@H](O)C[C@]4(C)[C@H]3CC[C@]12C` [20-hydroxyecdysone], in the assay on EcR-DF/USP-AE complex [1], the “inhibition of the binding of [3H]ponasterone A to the complex” value is “concentration-dependently inhibit” and the “activity of binding to the complex” value is “exhibited activity of binding”.

As to `C[C@]12CC[C@@H]3c4ccc(O)cc4CC[C@H]3[C@@H]1CC[C@@H]2O` [estradiol-17β], the “activity of binding to the EcR-DF/USP-AE complex” value with EcR-DF/USP-AE complex [1] is given as “exhibited activity of binding”.

Consider `CC(C)CC[C@@H](O)[C@](C)(O)[C@H]1CC[C@@]2(O)C3=CC(=O)[C@@H]4C[C@@H](O)[C@@H](O)C[C@]4(C)[C@H]3CC[C@]12C` [ponasterone A], for which the Kd at EcR-DF/USP-AE complex [2] was 2.79 nM. In addition, the “ability to bind to a ligand (specific binding of [3H]ponasterone A)” value in assay [3] is reported as “had ability to bind”; in assay [4] (E. coli-expressed recombinants, 1.37 nM [3H]ponasterone A, 25° C., 40 minutes, FIG. 16), “had ability to bind”. For the same molecule, the “time necessary for saturation of the binding” value was determined as 60 min in assay [4] (25° C., 1.34 nM ponasterone A, EcR-DF:USP-AE 1:1) and 480 min in assay [4] (low-temperature chamber at 4° C.). Besides, in assay [4] (NaCl 0, 50, 100, 300, 500 mM, 25° C., FIG. 21), the “effect of salt (NaCl) concentration on specific binding of ligand to the complex” value is recorded as “as the salt concentration increased, the specific binding of a ligand to the above complex decreased”. For the same molecule, the “binding to a ligand (ponasterone A)” value is reported as “a strong binding to a ligand was observed” in the assay with EcR-DF and USP-DE (setting [6]); “no such bindings were observed” in the assay on EcR-DF and USP-DE (setting [7]); “a strong binding to a ligand was observed” with EcR-DF and USP-AE (setting [6]); “no such bindings were observed” with EcR-DF and USP-AE (setting [7]); “no bindings to a ligand were observed” in assay [5] (COS-7 extracts, coexpression and mixing after single expression, FIG. 17). Further, in assay [5] (both Escherichia coli and mammalian cell expression systems), the “binding of the full-length EcR recombinant (EcR-AF) to ponasterone A” value is reported as “extremely weak”. For the same molecule, the “specific binding of [3H]ponasterone A” value with EcR or USP (single use) is on record as “no specific bindings were observed”.

As for `CC/C(=C(/CC)c1ccc(O)cc1)c1ccc(O)cc1` [stilbestrol], the “activity of binding to the EcR-DF/USP-AE complex” value in the assay with EcR-DF/USP-AE complex [1] was “exhibited activity of binding; also recorded: exhibited strong binding activity”.

Regarding `CCc1ccc(C(=O)NN(C(=O)c2cc(C)cc(C)c2)C(C)(C)C)cc1` [tebufenozide], in the assay on EcR-DF/USP-AE complex [1], the “inhibition of the binding of [3H]ponasterone A to the complex” value is “concentration-dependently inhibit” and the “activity of binding to the complex” value is recorded as “exhibited activity of binding”.
